≈ marks a conversion by molar mass, not a printed value. Calls of active or inactive are those of the source. The calls are words filed in the database; no cut-off is given here. Some results are limits rather than exact numbers.

One assay deals with Salmonella typhimurium. In words: Antibacterial activity against Salmonella typhimurium ATCC14028 assessed as inhibition of bacterial growth incubated for 18 hrs by microdilution method. The class given is functional, Salmonella enterica subsp. enterica serovar Typhimurium. The following applies: Salmonella enterica. (Dilution methods test growth across graded concentrations, often in twofold steps.)

The subject of assay [1] is Staphylococcus aureus. In words: Antibacterial activity against methicillin resistant Staphylococcus aureus CCARM3167 assessed as inhibition in bacterial growth incubated for 18 hrs by microdilution method. In kind it is functional.
The target of assay [2] is T1, L-2,3-diaminopropanoate--citrate ligase (Staphylococcus aureus (strain NCTC 8325 / PS 47), UniProt Q2G1M9).
T1 sequence (Q2G1M9 whole entry): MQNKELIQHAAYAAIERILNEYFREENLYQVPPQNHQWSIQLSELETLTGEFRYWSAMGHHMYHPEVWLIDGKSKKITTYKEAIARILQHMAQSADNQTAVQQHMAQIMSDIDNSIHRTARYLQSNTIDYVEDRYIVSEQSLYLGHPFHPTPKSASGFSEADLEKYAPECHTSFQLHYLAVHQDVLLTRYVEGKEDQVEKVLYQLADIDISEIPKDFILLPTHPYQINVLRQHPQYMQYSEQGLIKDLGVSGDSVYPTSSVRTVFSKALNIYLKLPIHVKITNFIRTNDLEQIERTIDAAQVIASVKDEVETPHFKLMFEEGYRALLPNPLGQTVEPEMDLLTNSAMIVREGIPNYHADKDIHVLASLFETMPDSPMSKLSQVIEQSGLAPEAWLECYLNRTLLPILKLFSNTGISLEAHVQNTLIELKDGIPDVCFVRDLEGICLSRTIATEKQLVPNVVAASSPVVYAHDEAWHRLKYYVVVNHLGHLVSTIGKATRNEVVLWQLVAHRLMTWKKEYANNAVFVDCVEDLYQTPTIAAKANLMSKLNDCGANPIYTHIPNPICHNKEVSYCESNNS
Description: Inhibition of Staphylococcus aureus SbnE incubated for 1 hr by malachite green staining based microplate reader analysis.

A further assay concerns Escherichia coli. In words: Antibacterial activity against Escherichia coli MC1061 assessed as inhibition of bacterial growth incubated for 18 hrs by microdilution method. The class given is functional.
Another assay concerns Bacillus cereus. Description: Antibacterial activity against Bacillus cereus ATCC27348 assessed as inhibition of bacterial growth incubated for 18 hrs by microdilution method. The class given is functional.
Assay [3] can be described thus: Antibacterial activity against Bacillus subtilis ATCC6633 assessed as inhibition of bacterial growth incubated for 18 hrs by microdilution method. In kind it is functional, Bacillus subtilis […].
The target in assay [4] is T2, L-2,3-diaminopropanoate--citrate ligase (Staphylococcus aureus (strain NCTC 8325 / PS 47)) (UniProt Q2G1M9).
T2 sequence (whole entry): T1 sequence (Q2G1M9 whole entry)
Description: Inhibition of Staphylococcus aureus SbnE at 50 uM incubated for 1 hr by malachite green staining based microplate reader analysis relative to control.

Assay [5] relates to Staphylococcus aureus. Description: Antibacterial activity against […] Staphylococcus aureus ATCC25923 assessed as inhibition in bacterial growth incubated for 18 hrs by microdilution method. The class given is functional.
The subject of assay [6] is Staphylococcus aureus. Description: Antibacterial activity against quinolone-resistant Staphylococcus aureus CCARM3505 assessed as inhibition of bacterial growth incubated for 18 hrs by microdilution method. In kind it is functional.
A further assay deals with Cell membrane. Description: Induction of membrane disruption in methicillin resistant Staphylococcus aureus CCARM3167 at MIC incubated for 30 mins PI staining based Flow cytometry.
Assay [7] concerns Staphylococcus aureus. Description: Antibacterial activity against methicillin resistance Staphylococcus aureus CCARM3167 assessed as inhibition of siderophore production at 1/4 times MIC incubated for 18 hrs by CAS liquid assay. In kind it is functional, organism-based.
The subject of assay [8] is Staphylococcus aureus. In words: Antibacterial activity against Staphylococcus aureus ATCC25923 assessed as inhibition of siderophore production at 1/2 times MIC incubated for 18 hrs by CAS liquid assay. The class given is functional, organism-based.
The test system of assay [9] is Staphylococcus aureus. Description: Antibacterial activity against methicillin resistance Staphylococcus aureus assessed as reduction in biofilm formation at 1/2 times MIC incubated 24 hrs by crystal violet staining based microplate reader analysis. The class given is functional, organism-based.

What is called MIC is the least concentration at which growth counts as inhibited. By IC50 is commonly meant the concentration that inhibits the measured activity by half. High values mean a need for much substance, low ones inhibition by little substance. As a reminder, the inhibition is the relative decrease from the control value, in per cent. The low end stands for a weak effect, the high end for a strong effect. As to `CCC(=O)[C@H](C)C[C@H](C)C[C@H](C)CC[C@@H](O)C[C@@H](O)[C@@H](CC(C)C)[C@@H](O)c1cc(O)cc(O)c1`, the minimal inhibitory concentration (MIC) was more than 256 µg/mL with Salmonella typhimurium; 256 µg/mL (≈ 533 µM) in the assay on Staphylococcus aureus [1]; 64 µg/mL (≈ 133 µM) in the assay with Escherichia coli; 256 µg/mL (≈ 533 µM) with Bacillus cereus; more than 256 µg/mL in [3]; 256 µg/mL (≈ 533 µM) with Staphylococcus aureus [5]. Besides, the minimum inhibitory concentration (MIC) in the assay on Staphylococcus aureus [6] is 64 µg/mL (≈ 133 µM). In [2], the IC50 amounted to 14.4 µM. The compound also showed an inhibition in assay [4] of 61.2%. Further, the result with Cell membrane was Active.
For `CC(C)C[C@H]([C@H](O)CCNCc1ccccc1)[C@@H](O)c1cc(O)cc(O)c1`, the MIC in the assay on Staphylococcus aureus [1] and in the assay on Staphylococcus aureus [5] was more than 256 µg/mL each time. Further, the IC50 in [2] was determined as 3.45 µM. The outcome with Staphylococcus aureus [7] and in the assay with Staphylococcus aureus [8] was inactive. Also, the inhibition in assay [4] was 97.1%.
In the case of `CC(C)C[C@H]([C@H](O)C[C@H](O)C#C[C@@H](C)C[C@H](C)C[C@@H](C)COCc1ccccc1)[C@@H](O)c1cc(O)cc(O)c1`, the MIC is more than 256 µg/mL in the assay on Salmonella typhimurium; 4 µg/mL (≈ 7.4 µM) in the assay on Staphylococcus aureus [1]; more than 256 µg/mL in the assay on Escherichia coli; more than 256 µg/mL in the assay on Bacillus cereus; more than 256 µg/mL in [3]; 8 µg/mL (≈ 14.8 µM) in the assay on Staphylococcus aureus [5]. Besides, the MIC in the assay with Staphylococcus aureus [6] turned out to be 16 µg/mL (≈ 29.6 µM). In addition, in [2], it took 5.49 µM to reach half-maximal inhibition (IC50). The same compound showed an inhibition in [4] of 71.7%. Besides, the result in the assay on Staphylococcus aureus [9] and in the assay with Cell membrane was Active.
Consider `CC(C)C[C@H]([C@H](O)CCNc1cccc(C(F)(F)F)c1)[C@@H](O)c1cc(O)cc(O)c1`, for which the MIC in the assay on Salmonella typhimurium was more than 256 µg/mL; in the assay with Staphylococcus aureus [1], 16 µg/mL (≈ 37.4 µM); in the assay with Escherichia coli it was more than 256 µg/mL; with Bacillus cereus it was 8 µg/mL (≈ 18.7 µM); in assay [3] it was 64 µg/mL (≈ 150 µM); with Staphylococcus aureus [5], 8 µg/mL (≈ 18.7 µM). Also, in the assay with Staphylococcus aureus [6], the MIC was 8 µg/mL (≈ 18.7 µM). The same compound registered an IC50 in assay [2] of 6.12 µM. Besides, in [4], the inhibition came out at 71.1%. For the same compound, the result in the assay with Staphylococcus aureus [9] and with Cell membrane was Active.
As for `CC(C)C[C@H]([C@H](O)C[C@H](O)C#CCCCCCCOCc1ccccc1)[C@@H](O)c1cc(O)cc(O)c1`, the minimal inhibitory concentration (MIC) in the assay on Salmonella typhimurium was more than 256 µg/mL; with Staphylococcus aureus [1], 128 µg/mL (≈ 257 µM); in the assay on Escherichia coli, more than 256 µg/mL; in the assay with Bacillus cereus, 64 µg/mL (≈ 128 µM); in [3] it was more than 256 µg/mL; with Staphylococcus aureus [5], 128 µg/mL (≈ 257 µM). Also, the MIC with Staphylococcus aureus [6] was 128 µg/mL (≈ 257 µM). This compound also registered an IC50 in [2] of 10.2 µM. Besides, the inhibition in assay [4] was 81.9%. The outcome in the assay with Cell membrane was Active.
Regarding `Cc1ccc(NCC[C@@H](O)[C@@H](CC(C)C)[C@@H](O)c2cc(O)cc(O)c2)c(Cl)c1`, the minimum inhibitory concentration (MIC) with Salmonella typhimurium is more than 256 µg/mL; in the assay on Staphylococcus aureus [1], 32 µg/mL (≈ 78.4 µM); in the assay with Escherichia coli, more than 256 µg/mL; in the assay on Bacillus cereus, more than 256 µg/mL; in assay [3], more than 256 µg/mL; in the assay with Staphylococcus aureus [5] it was 16 µg/mL (≈ 39.2 µM). Moreover, the MIC in the assay on Staphylococcus aureus [6] was 64 µg/mL (≈ 157 µM). In assay [2], this compound gave a concentration for half-maximal inhibition (IC50) of 4.12 µM. The same compound came in with an inhibition in assay [4] of 89.2%. For the same compound, the result with Staphylococcus aureus [9] and in the assay with Cell membrane was Active.
In the case of `CC(C)C[C@H]([C@H](O)C[C@H](O)C#C[C@@H](C)C[C@@H](C)C[C@@H](C)COCc1ccccc1)[C@@H](O)c1cc(O)cc(O)c1`, the MIC with Staphylococcus aureus [1] turned out to be 4 µg/mL (≈ 7.4 µM); in the assay on Staphylococcus aureus [5], 1 µg/mL (≈ 1.85 µM). This compound had a half-inhibitory concentration (IC50) in [2] of 11.4 µM. For the same compound, the inhibition in assay [4] stood at 77.5%. In addition, the outcome with Staphylococcus aureus [9] and in the assay with Cell membrane was Active.
As for `C[C@@H](COCc1ccccc1)C[C@H](C)C[C@H](C)C#CC(O)C[C@@H](O)c1cc(O)cc(O)c1` (stereo not given in full), the MIC in the assay with Salmonella typhimurium was more than 256 µg/mL; with Staphylococcus aureus [1], 256 µg/mL (≈ 581 µM); with Escherichia coli it was more than 256 µg/mL; with Bacillus cereus it was 64 µg/mL (≈ 145 µM); in assay [3], more than 256 µg/mL; with Staphylococcus aureus [5], 128 µg/mL (≈ 291 µM). Besides, the minimum inhibitory concentration (MIC) in the assay on Staphylococcus aureus [6] was 128 µg/mL (≈ 291 µM). Inhibition in assay [2] was half-maximal at 8.94 µM (IC50). The compound also came in with an inhibition in assay [4] of 76.4%. Besides, the result in the assay with Staphylococcus aureus [9] and with Cell membrane was Active.
In the case of `CC(C)C[C@H]([C@H](O)CCN)[C@@H](O)c1cc(O)cc(O)c1`, the MIC with Staphylococcus aureus [1] and in the assay on Staphylococcus aureus [5] was more than 256 µg/mL in each case. In assay [2], the half-maximal inhibitory concentration (IC50) stood at 1.81 µM. The outcome in the assay with Staphylococcus aureus [7] and in the assay on Staphylococcus aureus [8] was inactive. In [4], this compound yielded an inhibition of 97.2%.
Take `CC(C)C[C@@H]([C@H](O)C[C@H](O)CCCCCCCCNCc1ccccc1)[C@@H](O)c1cc(O)cc(O)c1`: the minimum inhibitory concentration (MIC) was 4 µg/mL (≈ 7.97 µM) in the assay with Salmonella typhimurium; 0.5 µg/mL (≈ 0.997 µM) with Staphylococcus aureus [1]; 0.25 µg/mL (≈ 0.498 µM) in the assay on Escherichia coli; 1 µg/mL (≈ 1.99 µM) in the assay with Bacillus cereus; 4 µg/mL (≈ 7.97 µM) in [3]; 2 µg/mL (≈ 3.99 µM) in the assay with Staphylococcus aureus [5]. Besides, the MIC in the assay with Staphylococcus aureus [6] stood at 0.5 µg/mL (≈ 0.997 µM). Besides, in [2], the 50% inhibitory concentration (IC50) amounted to 41.1 µM. Moreover, the result in the assay with Staphylococcus aureus [7] and with Staphylococcus aureus [8] was inactive. Moreover, the inhibition in assay [4] was 57.9%. Further, the outcome with Staphylococcus aureus [9] and in the assay with Cell membrane was Active.
